Measurements taken from patent publication US7884136B2, “Modified-release formulations of a bupropion salt” (Biovail Laboratories International S.R.L., priority 2005, dated 2011).
Like-named read-outs stand apart in the source and are kept apart here.

Assays:
[1] = cited from earlier work
[2] = Accelerated stability study of bupropion HBr, closed bottles, 40° C./75% RH, 3 and 6 months, HPLC; type: physicochemical; details: 40° C./R.H. 75%; for Chromatographic purity B) (HPLC): 4) 2-N-(tert-Butyl)-aminopropiophenone / Chromatographic purity B) (HPLC): 5) single unknown impurity (each): LOQ 0.02%, LOD 0.002%; for Chromatographic purity A) (HPLC): 1) 3′-Chloropropiophenone / Chromatographic purity A) (HPLC): 3) 3′-Chlorobenzoic acid / Chromatographic purity A) (HPLC): 2) 3′-Chloro-2-bromopropiophenone: LOQ 0.05%; for Chromatographic purity A) (HPLC): 1) 3′-Chloropropiophenone / Chromatographic purity A) (HPLC): 3) 3′-Chlorobenzoic acid: LOD 0.01%; for Chromatographic purity A) (HPLC): 2) 3′-Chloro-2-bromopropiophenone: LOD 0.04%; for Assay (HPLC): on d.b.; for Description: specification white or almost white crystalline powder; for Chromatographic purity B) (HPLC): 6) total unknown impurities: sum of all impurity peak areas
Description: The samples were prepared in closed bottles and placed in the stability chamber. HPLC analysis was conducted on the samples prior to placing them in the stability chamber (time 0), and after 3 months and 6 months. The amounts of the main degradation products present at time 0 were compared with those amounts present after 3 months and 6 months. […] For each sample tested, at each time period, two different HPLC assays were run. The first assay labelled chromatographic purity A, measured the percentage of three impurities 3′chloropropiophenone, 3′-Chloro-2-bromopropiophenone and 3′-Chlorobenzoic acid. The second assay, labelled chromatographic purity B, measured the percentage of 2-N-(tert-Butyl)-aminopropiophenone, a single unknown impurity and the total unknown impurities.

[3] = PEG-Fatty Acid Monoester Surfactants
[4] = PEG-Fatty Acid Diester Surfactants

CCCCCCCCCCCCCCCCCC(=O)OCC(COC(=O)CCCCCCCCCCCCCCCCC)(COC(=O)CCCCCCCCCCCCCCCCC)COC(=O)CCCCCCCCCCCCCCCCC [Pentaerythrityl tetrastearate]
HLB ([1]; Transesterification Products of Oils and Alcohols): <10

PEG 100, 200, 300 monooleate
HLB [1, 3]: >10

PEG-6 stearate
HLB [1, 3]: 9.7

PEG-400 oleate
HLB [1, 3]: >10

PEG-1 stearate
HLB [1, 3]: 2

PEG-9 stearate
HLB [1, 3]: >10

PEG-4 oleate
HLB [1, 3]: 8.3

Br.CC(NC(C)(C)C)C(=O)c1cccc(Cl)c1 (centres unmarked) [Bupropion.HBr D00895]
Chromatographic purity (HPLC: A + B) Total impurities ([2]; 3 month): 0.1%
Water content (K.F.) ([2]; 3 month): 0.07%
Chromatographic purity B) (HPLC): 4) 2-N-(tert-Butyl)-aminopropiophenone ([2]; 3 month): 4) 0.03%
Chromatographic purity B) (HPLC): 5) single unknown impurity (each) ([2]; 3 month): 5) 0.04%
Chromatographic purity A) (HPLC): 1) 3′-Chloropropiophenone ([2]; 3 month): 1) n.q.
Chromatographic purity A) (HPLC): 3) 3′-Chlorobenzoic acid ([2]; 3 month): 3) 0.05%
Chromatographic purity A) (HPLC): 2) 3′-Chloro-2-bromopropiophenone ([2]; 3 month): 2) n.d.
Assay (HPLC) ([2]; 3 month): 100.7%
Description ([2]; 3 month): conform
Chromatographic purity B) (HPLC): 6) total unknown impurities ([2]; 3 month): 6) 0.05%
Chromatographic purity (HPLC: A + B) Total impurities ([2]; 6 months): 0.1%
Water content (K.F.) ([2]; 6 months): 0.07%
Chromatographic purity B) (HPLC): 4) 2-N-(tert-Butyl)-aminopropiophenone ([2]; 6 months): 4) 0.04%
Chromatographic purity B) (HPLC): 5) single unknown impurity (each) ([2]; 6 months): 5) n.q.
Chromatographic purity A) (HPLC): 1) 3′-Chloropropiophenone ([2]; 6 months): 1) 0.05%
Chromatographic purity A) (HPLC): 3) 3′-Chlorobenzoic acid ([2]; 6 months): 3) n.q.
Chromatographic purity A) (HPLC): 2) 3′-Chloro-2-bromopropiophenone ([2]; 6 months): 2) n.d.
Assay (HPLC) ([2]; 6 months): 99.7%
Description ([2]; 6 months): conform
Chromatographic purity B) (HPLC): 6) total unknown impurities ([2]; 6 months): 6) 0.02%
Chromatographic purity (HPLC: A + B) Total impurities ([2]; time 0): 0.1%
Water content (K.F.) ([2]; time 0): 0.04%
Chromatographic purity B) (HPLC): 4) 2-N-(tert-Butyl)-aminopropiophenone ([2]; time 0): 4) 0.04%
Chromatographic purity B) (HPLC): 5) single unknown impurity (each) ([2]; time 0): 5) 0.04%
Chromatographic purity A) (HPLC): 1) 3′-Chloropropiophenone ([2]; time 0): 1) n.d.
Chromatographic purity A) (HPLC): 3) 3′-Chlorobenzoic acid ([2]; time 0): 3) n.q.
Chromatographic purity A) (HPLC): 2) 3′-Chloro-2-bromopropiophenone ([2]; time 0): 2) n.d.
Assay (HPLC) ([2]; time 0): 99.2%
Description ([2]; time 0): conform

Glyceryl dioleate
HLB ([1]; Mono- and Diglyceride Surfactants): 3-4

PEG-4 dioleate
HLB [1, 4]: 6

PEG-20 glyceryl oleate
HLB ([1]; PEG Glycerol Fatty Acid Esters): >10

Polyglyceryl-2 dioleate
HLB ([1]; Polyglycerized Fatty Acids): 7

PEG-15 stearate
HLB [1, 3]: 14

PEG 400 distearate
HLB [1, 3]: >10

Polyglyceryl-10 pentaoleate
HLB ([1]; Polyglycerized Fatty Acids): 3.5

PEG-4 dilaurate
HLB [1, 4]: 6

PEG-5 oleate
HLB [1, 3]: 9.5

Br.CC(NC(C)(C)C)C(=O)c1cccc(Cl)c1 (centres unmarked) [Bupropion.HBr D00894]
Chromatographic purity (HPLC: A + B) Total impurities ([2]; 3 month): 0.1%
Water content (K.F.) ([2]; 3 month): 0.07%
Chromatographic purity B) (HPLC): 4) 2-N-(tert-Butyl)-aminopropiophenone ([2]; 3 month): 4)0.03%
Chromatographic purity B) (HPLC): 5) single unknown impurity (each) ([2]; 3 month): 5) 0.04%
Chromatographic purity A) (HPLC): 1) 3′-Chloropropiophenone ([2]; 3 month): 1) n.q.
Chromatographic purity A) (HPLC): 3) 3′-Chlorobenzoic acid ([2]; 3 month): 3) n.q.
Chromatographic purity A) (HPLC): 2) 3′-Chloro-2-bromopropiophenone ([2]; 3 month): 2) n.d.
Assay (HPLC) ([2]; 3 month): 99.6%
Description ([2]; 3 month): conform
Chromatographic purity B) (HPLC): 6) total unknown impurities ([2]; 3 month): 6) 0.06%
Chromatographic purity (HPLC: A + B) Total impurities ([2]; 6 months): 0.1%
Water content (K.F.) ([2]; 6 months): 0.08%
Chromatographic purity B) (HPLC): 4) 2-N-(tert-Butyl)-aminopropiophenone ([2]; 6 months): 4) 0.04%
Chromatographic purity B) (HPLC): 5) single unknown impurity (each) ([2]; 6 months): 5) n.q.
Chromatographic purity A) (HPLC): 1) 3′-Chloropropiophenone ([2]; 6 months): 1) 0.05%
Chromatographic purity A) (HPLC): 3) 3′-Chlorobenzoic acid ([2]; 6 months): 3) n.q.
Chromatographic purity A) (HPLC): 2) 3′-Chloro-2-bromopropiophenone ([2]; 6 months): 2) n.d.
Description ([2]; 6 months): conform
Chromatographic purity (HPLC: A + B) Total impurities ([2]; time 0): 0.1%
Water content (K.F.) ([2]; time 0): 0.05%
Chromatographic purity B) (HPLC): 4) 2-N-(tert-Butyl)-aminopropiophenone ([2]; time 0): 4) 0.04%
Chromatographic purity B) (HPLC): 5) single unknown impurity (each) ([2]; time 0): 5) 0.04%
Chromatographic purity A) (HPLC): 1) 3′-Chloropropiophenone ([2]; time 0): 1) n.d.
Chromatographic purity A) (HPLC): 3) 3′-Chlorobenzoic acid ([2]; time 0): 3) n.q.
Chromatographic purity A) (HPLC): 2) 3′-Chloro-2-bromopropiophenone ([2]; time 0): 2) n.d.
Assay (HPLC) ([2]; time 0): 99.6%
Description ([2]; time 0): conform
Chromatographic purity B) (HPLC): 6) total unknown impurities ([2]; time 0): 6) 0.04%

Polyglyceryl-10 trioleate
HLB ([1]; Polyglycerized Fatty Acids): 7

Sorbitan monooleate
HLB ([1]; Sorbitan Fatty Acid Ester Surfactants, as reported by the manufacturer): 4.3

PEG-400 distearate
HLB [1, 4]: >10

CCCCCCCC/C=C\CCCCCCCC(=O)[O-].[Na+] [Sodium oleate]
HLB ([1]; Ionic Surfactants, as reported by the manufacturer): 18

Polyglyceryl-4 stearate
HLB ([1]; Polyglycerized Fatty Acids): 5-6

PEG-6 dioleate
HLB [1, 4]: 7.2

PEG 4-100 monooleate
HLB [1, 3]: >8

PEG-10 dipalmitate
HLB [1, 4]: >10

PEG-400 dioleate
HLB [1, 4]: >10

Polyglyceryl-10 oleate
HLB ([1]; Polyglycerized Fatty Acids): 14

PEG-6 distearate
HLB [1, 4]: 6.5

Br.CC(NC(C)(C)C)C(=O)c1cccc(Cl)c1 (centres unmarked) [Bupropion.HBr D00896]
Chromatographic purity (HPLC: A + B) Total impurities ([2]; 3 month): 0.1%
Water content (K.F.) ([2]; 3 month): 0.11%
Chromatographic purity B) (HPLC): 4) 2-N-(tert-Butyl)-aminopropiophenone ([2]; 3 month): 4) 0.03%
Chromatographic purity B) (HPLC): 5) single unknown impurity (each) ([2]; 3 month): 5) 0.04%
Chromatographic purity A) (HPLC): 1) 3′-Chloropropiophenone ([2]; 3 month): 1) n.q.
Chromatographic purity A) (HPLC): 3) 3′-Chlorobenzoic acid ([2]; 3 month): 3) n.q.
Chromatographic purity A) (HPLC): 2) 3′-Chloro-2-bromopropiophenone ([2]; 3 month): 2) n.d.
Assay (HPLC) ([2]; 3 month): 100.0%
Description ([2]; 3 month): conform
Chromatographic purity (HPLC: A + B) Total impurities ([2]; 6 months): 0.1%
Water content (K.F.) ([2]; 6 months): 0.04%
Chromatographic purity B) (HPLC): 4) 2-N-(tert-Butyl)-aminopropiophenone ([2]; 6 months): 4) 0.04%
Chromatographic purity B) (HPLC): 5) single unknown impurity (each) ([2]; 6 months): 5) n.q.
Chromatographic purity A) (HPLC): 1) 3′-Chloropropiophenone ([2]; 6 months): 1) 0.05%
Chromatographic purity A) (HPLC): 3) 3′-Chlorobenzoic acid ([2]; 6 months): 3) n.q.
Chromatographic purity A) (HPLC): 2) 3′-Chloro-2-bromopropiophenone ([2]; 6 months): 2) n.d.
Assay (HPLC) ([2]; 6 months): 100.4%
Description ([2]; 6 months): conform
Chromatographic purity B) (HPLC): 6) total unknown impurities ([2]; 6 months): 6) n.q.
Chromatographic purity (HPLC: A + B) Total impurities ([2]; time 0): 0.1%
Water content (K.F.) ([2]; time 0): 0.06%
Chromatographic purity B) (HPLC): 4) 2-N-(tert-Butyl)-aminopropiophenone ([2]; time 0): 4) 0.04%
Chromatographic purity B) (HPLC): 5) single unknown impurity (each) ([2]; time 0): 5) 0.05%
Chromatographic purity A) (HPLC): 1) 3′-Chloropropiophenone ([2]; time 0): 1) n.d.
Chromatographic purity A) (HPLC): 3) 3′-Chlorobenzoic acid ([2]; time 0): 3) n.q.
Chromatographic purity A) (HPLC): 2) 3′-Chloro-2-bromopropiophenone ([2]; time 0): 2) n.d.
Assay (HPLC) ([2]; time 0): 99.3%
Description ([2]; time 0): conform
Chromatographic purity B) (HPLC): 6) total unknown impurities ([2]; time 0): 6) 0.05%
